Assay results reported in ChEMBL document CHEMBL5257108, “Phthalazinone-based lactams and cyclic ureas as ROCK2 selective inhibitors” (Bioorg Med Chem Lett, 2023).

Assays:
[1] = target: Rho-associated protein kinase 1 (Homo sapiens, UniProt Q13464); assay: Inhibition of ROCK1 (unknown origin)
[2] = target: Rho-associated protein kinase 2 (Homo sapiens, UniProt O75116); assay: Inhibition of ROCK2 (unknown origin)
Homo sapiens = organism: Homo sapiens; assay: Selectivity ratio of IC50 for inhibition of ROCK2 (unknown origin) to IC50 for inhibition of ROCK1 (unknown origin)

Sequence of Rho-associated protein kinase 1 (Q13464 whole entry): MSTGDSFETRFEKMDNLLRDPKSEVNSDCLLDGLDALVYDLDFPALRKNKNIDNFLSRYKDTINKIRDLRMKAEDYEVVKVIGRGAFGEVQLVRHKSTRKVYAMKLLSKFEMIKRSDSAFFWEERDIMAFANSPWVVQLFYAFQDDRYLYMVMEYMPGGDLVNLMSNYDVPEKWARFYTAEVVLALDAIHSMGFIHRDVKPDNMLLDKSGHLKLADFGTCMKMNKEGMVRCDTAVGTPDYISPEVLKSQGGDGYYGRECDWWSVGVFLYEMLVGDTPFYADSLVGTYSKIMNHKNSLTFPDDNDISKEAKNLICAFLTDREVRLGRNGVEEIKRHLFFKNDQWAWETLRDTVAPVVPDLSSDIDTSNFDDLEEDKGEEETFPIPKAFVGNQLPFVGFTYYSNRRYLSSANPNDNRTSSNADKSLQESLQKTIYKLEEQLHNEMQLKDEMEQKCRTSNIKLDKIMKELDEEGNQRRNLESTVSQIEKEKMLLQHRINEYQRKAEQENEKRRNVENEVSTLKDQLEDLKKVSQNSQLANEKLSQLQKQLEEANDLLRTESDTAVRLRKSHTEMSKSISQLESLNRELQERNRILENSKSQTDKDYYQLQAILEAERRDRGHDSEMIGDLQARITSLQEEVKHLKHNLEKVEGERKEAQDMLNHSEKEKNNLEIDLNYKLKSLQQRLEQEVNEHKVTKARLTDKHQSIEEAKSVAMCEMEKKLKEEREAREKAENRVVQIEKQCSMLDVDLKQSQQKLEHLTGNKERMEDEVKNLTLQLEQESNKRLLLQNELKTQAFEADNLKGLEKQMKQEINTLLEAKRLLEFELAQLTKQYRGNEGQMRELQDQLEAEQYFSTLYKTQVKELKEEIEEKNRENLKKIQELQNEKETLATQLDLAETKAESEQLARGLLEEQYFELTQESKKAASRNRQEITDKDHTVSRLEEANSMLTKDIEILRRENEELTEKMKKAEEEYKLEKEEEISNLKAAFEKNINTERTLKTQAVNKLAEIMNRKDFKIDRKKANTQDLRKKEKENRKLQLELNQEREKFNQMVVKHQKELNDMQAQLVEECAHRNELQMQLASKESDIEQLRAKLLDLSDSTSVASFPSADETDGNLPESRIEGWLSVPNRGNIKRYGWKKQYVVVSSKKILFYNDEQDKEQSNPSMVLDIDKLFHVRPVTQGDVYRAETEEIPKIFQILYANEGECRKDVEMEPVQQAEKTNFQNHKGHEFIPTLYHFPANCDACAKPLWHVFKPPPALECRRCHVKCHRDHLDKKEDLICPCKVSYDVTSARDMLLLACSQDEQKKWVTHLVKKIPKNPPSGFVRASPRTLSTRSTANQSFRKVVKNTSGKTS
Sequence of Rho-associated protein kinase 2 (O75116 whole entry): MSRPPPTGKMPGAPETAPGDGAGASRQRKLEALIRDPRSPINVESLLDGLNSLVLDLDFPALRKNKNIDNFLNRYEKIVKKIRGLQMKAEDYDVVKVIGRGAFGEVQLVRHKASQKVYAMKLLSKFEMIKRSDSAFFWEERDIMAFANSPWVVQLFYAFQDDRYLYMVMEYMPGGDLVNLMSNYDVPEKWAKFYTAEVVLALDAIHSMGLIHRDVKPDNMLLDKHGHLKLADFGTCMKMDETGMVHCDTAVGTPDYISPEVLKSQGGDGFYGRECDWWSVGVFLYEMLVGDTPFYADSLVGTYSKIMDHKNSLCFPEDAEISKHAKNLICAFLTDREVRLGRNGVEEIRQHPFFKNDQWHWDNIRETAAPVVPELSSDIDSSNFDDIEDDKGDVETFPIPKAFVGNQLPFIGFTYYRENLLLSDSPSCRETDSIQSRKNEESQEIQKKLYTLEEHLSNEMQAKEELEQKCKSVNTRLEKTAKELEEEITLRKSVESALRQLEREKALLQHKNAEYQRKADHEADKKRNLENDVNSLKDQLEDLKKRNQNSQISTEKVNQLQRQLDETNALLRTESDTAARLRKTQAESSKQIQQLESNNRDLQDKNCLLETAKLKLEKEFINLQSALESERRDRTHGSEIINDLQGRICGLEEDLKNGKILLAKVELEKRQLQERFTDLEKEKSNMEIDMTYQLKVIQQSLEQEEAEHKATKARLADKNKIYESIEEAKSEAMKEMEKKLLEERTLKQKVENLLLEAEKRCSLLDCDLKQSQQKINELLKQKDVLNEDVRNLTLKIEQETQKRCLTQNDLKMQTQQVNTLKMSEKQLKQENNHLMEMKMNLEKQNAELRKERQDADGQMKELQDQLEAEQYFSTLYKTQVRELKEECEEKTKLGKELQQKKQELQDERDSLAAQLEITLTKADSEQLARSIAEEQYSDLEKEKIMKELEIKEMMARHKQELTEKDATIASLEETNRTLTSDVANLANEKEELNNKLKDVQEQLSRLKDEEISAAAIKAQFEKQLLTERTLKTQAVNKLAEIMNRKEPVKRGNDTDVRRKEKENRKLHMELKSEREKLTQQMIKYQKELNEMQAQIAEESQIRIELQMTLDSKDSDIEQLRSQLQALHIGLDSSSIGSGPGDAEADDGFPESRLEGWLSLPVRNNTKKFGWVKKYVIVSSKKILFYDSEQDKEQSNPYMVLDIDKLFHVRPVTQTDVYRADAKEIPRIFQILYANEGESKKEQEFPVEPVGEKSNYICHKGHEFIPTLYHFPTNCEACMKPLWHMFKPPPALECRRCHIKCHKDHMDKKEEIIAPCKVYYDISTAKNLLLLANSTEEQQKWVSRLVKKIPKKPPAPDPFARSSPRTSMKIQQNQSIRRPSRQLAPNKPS

SMILES | IC50 [1] | IC50 [2] | Ratio IC50 (Homo sapiens)
O=C1N(Cc2ccccc2)CCN1c1ccc(-c2n[nH]c(=O)c3ccccc23)cc1 | > 2 µM | 0.056 µM | 
O=C1C(NC2CCCC2)CCN1c1ccc(-c2n[nH]c(=O)c3ccccc23)cc1 (centres undefined) | > 2 µM | 1.77 µM | 
CS(=O)(=O)c1cccc(NC2CCN(c3ccc(-c4n[nH]c(=O)c5ccccc45)cc3)C2=O)c1 (centres undefined) | 0.43 µM | 0.016 µM | 
O=C1C(Nc2ccccc2)CCN1c1ccc(-c2n[nH]c(=O)c3ccccc23)cc1 (centres undefined) | 0.95 µM | 0.034 µM | 
O=C1C(NCc2ccccc2)CCN1c1ccc(-c2n[nH]c(=O)c3ccccc23)cc1 (centres undefined) | > 2 µM | 1.4 µM | 
Cc1nc2ccc(NC3CCN(c4ccc(-c5n[nH]c(=O)c6ccccc56)cc4)C3=O)cc2s1 (centres undefined) | 0.115 µM | 0.0074 µM | 
O=c1[nH]nc(-c2ccc(-n3ncn(Cc4ccccc4)c3=O)cc2)c2ccccc12 | > 2 µM | 0.3 µM | 
CC(C)Oc1cccc(NC2CCN(c3ccc(-c4n[nH]c(=O)c5ccccc45)cc3)C2=O)c1 (centres undefined) | 0.38 µM | 0.018 µM | 
O=C(Nc1ccc(-c2n[nH]c(=O)c3ccccc23)cc1)N1CCc2ccccc21 |  | 0.001 µM | 20
O=C1OC(c2ccccc2)CN1c1ccc(-c2n[nH]c(=O)c3ccccc23)cc1 (centres undefined) | 0.23 µM | 0.06 µM | 
O=C1C(Nc2cccc(OC(F)F)c2)CCN1c1ccc(-c2n[nH]c(=O)c3ccccc23)cc1 (stereo in doubt; 22) | 0.2 µM | 0.0025 µM | 

Continued by falling IC50 [2], values first:

IC50 [1] | IC50 [2] | Ratio IC50 (Homo sapiens) | SMILES
1.52 µM | 0.49 µM |  | O=C1CC(c2ccccc2)CN1c1ccc(-c2n[nH]c(=O)c3ccccc23)cc1 (centres undefined)
> 2 µM | 0.37 µM |  | O=C1C(c2ccc(-c3n[nH]c(=O)c4ccccc34)cc2)CCN1c1ccccc1 (centres undefined)
> 2 µM | 0.35 µM |  | O=C1C(c2ccccc2)CCN1c1ccc(-c2n[nH]c(=O)c3ccccc23)cc1 (centres undefined)
1.05 µM | 0.023 µM |  | COc1cccc(NC2CCN(c3ccc(-c4n[nH]c(=O)c5ccccc45)cc3)C2=O)c1 (centres undefined)
0.2 µM | 0.019 µM |  | O=C1N(c2ccc(-c3n[nH]c(=O)c4ccccc34)cc2)CCN1c1cccnc1
0.99 µM | 0.015 µM |  | O=C1C(Nc2cccc(OC(F)F)c2)CCN1c1ccc(-c2n[nH]c(=O)c3ccccc23)cc1 (stereo in doubt; 21)
0.34 µM | 0.007 µM |  | O=C(Cc1ccc(-c2n[nH]c(=O)c3ccccc23)cc1)N1CCc2ccccc21
0.1 µM | 0.0063 µM |  | O=C1C(Oc2cccc(OC(F)(F)F)c2)CCN1c1ccc(-c2n[nH]c(=O)c3ccccc23)cc1 (centres undefined)
0.27 µM | 0.0056 µM |  | O=C1C(Nc2cccc(OC(F)(F)F)c2)CCN1c1ccc(-c2n[nH]c(=O)c3ccccc23)cc1 (centres undefined)
0.24 µM | 0.0052 µM |  | O=C1N(c2ccccc2)CCN1c1ccc(-c2n[nH]c(=O)c3ccccc23)cc1
0.33 µM | 0.002 µM |  | O=C1C(Nc2cccc(OC(F)F)c2)CCN1c1ccc(-c2n[nH]c(=O)c3ccccc23)cc1 (racemic)
